Counter-ions that a name gives are not always drawn.
Tests used:
[1] = Stability in aqueous solution; format: physicochemical; details: only freshly made stocks are effective; product a lot less toxic
Text: 4 pairs of optical enantiomers or salts thereof of the following chemicals were used in this study: • (R)-(+)-α-Methylbenzyl isocyanate and (S)-(−)-α-Methylbenzyl isocyanate. Only freshly made stocks of α-Methylbenzyl […] are effective.

[2] = tested on: ouabain-induced arrhythmias; details: in vivo; cited from earlier work
[3] = tested on: isoprenaline-induced tachycardia; details: in vivo; cited from earlier work
[4] = tested on: Aspergillus awamori transformed with the aequorin gene; test: Example 6: aequorin luminometry of [Ca2+]c response (toxicity) in Aspergillus awamori; format: cell-based; details: FIG. 1A

CC(N=C=O)c1ccccc1 (stereo not drawn) [α-Methylbenzyl isocyanate]
stability in aqueous solution [1]: will react with water

CC(C)NCC(O)COc1cccc2ccccc12 (single isomer, unassigned; (+)) [(+)-propranolol]
effectiveness in abolishing ouabain-induced arrhythmias [2]: equally effective
activity in blocking isoprenaline-induced tachycardia relative to racemic propranolol [3]: less than a hundredth the activity of racemic propranolol

COC(=O)C1=C(C)NC(C)=C([N+](=O)[O-])[C@@H]1c1ccccc1C(F)(F)F [(R)-(+)-BAY K8644]
[Ca2+]c response to 10 μM (S)-(−)-BAY K8644 ([4]; preincubation 5 min with 10 μM simple dilution, n=6): significant inhibition
[Ca2+]c final resting level ([4]; preincubation with 10 μM, then 10 μM (S)-(−)-BAY K8644): lower

CC(C)NCC(O)COc1cccc2ccccc12 (racemic) [propranolol hydrochloride]
effectiveness in abolishing ouabain-induced arrhythmias [2]: equally effective

(S)-(−)-propranolol hydrochloride [(S)-(−)-propranolol HCl]
effectiveness in abolishing ouabain-induced arrhythmias [2]: little effect

— patent US8071630B2 (priority 2002, dated 2011)
